Source: US12409160B1, “Compositions and methods for treatment of peri-implantitis and periodontitis” (Cusp Biosciences, Inc., priority 2025, dated 2025)

Tests used:
[1] = system: human periodontal ligament cells (hPDLCs); assay: Cell viability (MTT) of hPDLCs; assay type: cell-based; conditions: Day 1 (24 h)
[2] = system: RAW 264.7 pre-osteoclasts; assay: Osteoclastogenesis: hPDLC medium on RAW 264.7 pre-osteoclasts, TRAP staining; assay type: cell-based
[3] = system: hPDLF / CD14+ monocyte co-culture; assay: TRAP-positive multinucleated osteoclasts on bone slices after seven-day co-culture; assay type: cell-based, human
Protocol: Culture primary human periodontal-ligament fibroblasts (hPDLFs) and autologous CD14^+ monocytes in a trans-well co-culture that recapitulates the paracrine crosstalk driving osteoclastogenesis. […] At 48 h collect supernatants and lysates.
• a. […] Secondary Read-Outs: • a.

[4] = cited from earlier work
hPDLF monolayers = assay: Scratch-wound closure in hPDLF monolayers; assay type: cell-based, human; conditions: over 24 h after treatment
[5] = system: human periodontal-ligament fibroblasts (hPDLFs) and CD14+ monocytes; assay: hPDLF / CD14+ monocyte trans-well co-culture, ELISA of supernatants; assay type: cell-based
Protocol: Culture primary human periodontal-ligament fibroblasts ([…]) and autologous CD14^+ monocytes in a trans-well co-culture that recapitulates the paracrine crosstalk driving osteoclastogenesis. After 24 h equilibration, expose triplicate wells to: (i) vehicle (0.1% DMSO); […] At 48 h collect supernatants and lysates. • a. […] Secondary Read-Outs: • a.

[6] = system: human periodontal ligament cells (hPDLCs); assay: IL-1β and TNF-α in supernatant (ELISA) of LPS-challenged hPDLCs under CoCl2; assay type: cell-based; conditions: 2 μM simvastatin, LPS 1 μg/ml, vs LPS-Veh

CS(=O)(=O)c1ccc(Oc2cc(F)cc(C#N)c2)c2c1[C@H](O)[C@H](F)[C@@H]2F [Belzutifan, belzutifan]
Viability (% of No-Stim) [1]: > 90% | reduction in osteoclast formation ([2]; at 1%): ≥ 65% | cut of osteoclast formation ([3]; at 1 nM): > 60% | solubility in DMSO ([4]; DMSO, 25° C.): ≈ 77 mg mL-1 | solubility in ethanol ([4]; ethanol): sparingly soluble | solubility in water ([4]; water across pH 1-8): practically insoluble | scratch-wound closure kinetics (hPDLF monolayers): retain normal closure kinetics | cut of RANKL and pro-inflammatory cytokines versus vehicle ([5]; ELISA at 48 h, belzutifan 0.1, 1, 10 nM): ≥ 70% | VEGF preserved, of VEGF seen in vehicle ([5]; VEGF-A secretion, 48 h): ≥ 80%

COC(=O)CNC(=O)C(=O)OC [DMOG]
effect on osteoclast formation ([3]; DMOG 1 mM): increases

CCC(C)(C)C(=O)O[C@H]1C[C@@H](C)C=C2C=C[C@H](C)[C@H](CC[C@@H]3C[C@@H](O)CC(=O)O3)[C@H]21 [SIMV, simvastatin]
TRAP+ osteoclasts (cells per well) ([2]; 2 μM simvastatin): 85 cells per well | IL-1β (24 h), decrease (↓) [6]: ↓ 25% | TNF-α (24 h), decrease (↓) [6]: ↓ 20%
